Experimental data published in US8507411B2, “Neoglycorandomization and digitoxin analogs” (priority 2004, dated 2013).
Read-outs that look alike come from different tables or passages of the source.

How the values were obtained:
[1] = system: HCT-116; assay: High-throughput calcein AM cytotoxicity assay, HCT-116; format: cell-based, human
Excerpt: (§1) Standard errors are depicted with error bars.

[2] = system: Hep3B; assay: High-throughput calcein AM cytotoxicity assay, Hep3B; format: cell-based, human; conditions: Hep 3B cells, read-out: IC50, Hep 3B
Excerpt: as §1

[3] = system: A549; assay: High-throughput calcein AM cytotoxicity assay, A549; format: cell-based, human; conditions: read-out: IC50, A549
Excerpt: as §1

[4] = system: nine human cancer cell lines and a mouse mammary normal epithelial control line; assay: High-throughput calcein AM cytotoxicity assay, whole cell line panel
Excerpt: In the assay, live cells were distinguished by the presence of a ubiquitous intracellular enzymatic activity which converts the non-fluorescent cell-permeable molecule calcein AM to the intensely fluorescent molecule calcein, which is retained within live cells. The IC50 value for each library member represents at least six replicates of dose-response experiments conducted over five concentrations using two-fold dilutions. […] Standard errors are depicted with error bars. Numerical values and corresponding error values can be found in Table 4. Du145: […]; MCF7: human breast carcinoma; HCT-116: human colon carcinoma, Hep3B: human liver carcinoma; SF-268: human CNS glioblastoma; SK-OV-3: human ovary adenocarcinoma; NCI-H460: human lung carcinoma; A549: human lung adenocarcinoma; NCI/ADR-RES: human breast carcinoma; NmuMG: mouse mammary normal epithelial.
Cell Culture: All cell lines except NmuMG were maintained in RPMI 1640 medium from InVitrogen (Cat No. 11875-085) supplemented with 10% w/v fetal bovine serum (FBS) from ICN (Cat No. 2916154) and penicillin-streptomycin (PS) (100 U/mL and 100 μg/mL) from InVitrogen (Cat No. 15140-122). NmuMG cells were maintained in DMEM medium from InVitrogen (Cat No. 11965-084) supplemented with 10% w/v fetal bovine serum (FBS) from ICN (Cat No. 2916154), 10 μg/ml insulin (InVitrogen Cat No 12585-014), and penicillin-streptomycin (PS) (100 U/mL and 100 μg/mL) from InVitrogen (Cat No. 15140-122). Cells were harvested by trypsinization using 0.25% w/v trypsin and 0.1% w/v EDTA from InVitrogen (Cat No. 15-050-057) and then counted in a hemocytometer in duplicate with better than 10% agreement in field counts. Cells were plated at a cell density of 10,000-15,000 cells/well of each Corning Costar 96-well black tissue culture treated microtiter plate (Fisher Cat No. 07-200-627). Cells were grown for 1 h at 37° C., with 5% CO2 in a humidified incubator to allow cell attachment to occur before compound addition.
Library Member Handling and Preparation for Cytotoxicity Assays: Library members were stored at −20° C. under dessicating conditions before the assay. Library member stocks (100×) were prepared in Corning Costar polypropylene 96-well V-bottom polypropylene microtiter plates (Fisher Cat No. 07-200-695). Five serial 1:2 dilutions were made with anhydrous DMSO at 100× the final concentration used in the assay.
Library Member Addition: The library member-containing plates were diluted 1:10 with complete cell culture media. The 10× stocks (10 μL) were added to the attached cells using a Biomek FX liquid handler (Beckman-Coulter). Library member stocks (10 μL) were added to 90 μL of cells in each plate to insure full mixing of stocks with culture media using a Beckman FX liquid handler with 96-well head.
Determination of Cytotoxicity: Cells were incubated with the library members for 72 h before fluorescence reading. Test plates were removed from the incubator and washed 1× in sterile PBS to remove serum containing calcium esterases. Calcein AM reagent (30 μL, […]) was added and the cells were incubated for 30 min at 37° C. Plates were read for emission using a fluorescein filter (excitation 485 nm, emission 535 nm).
IC50 Calculation: For each library member, at least six dose response experiments were conducted. […] To calculate IC50, percent inhibitions were plotted as a function of log [concentration] and then fit to a four-parameter logistic model that allowed for a variable Hill slope using XLfit 4.1.
Cytotoxicity Assays. All cell lines except NmuMG were maintained in RPMI 1640 medium supplemented with 10% w/v fetal bovine serum (FBS) and penicillin-streptomycin (PS) (100 U/mL and 100 μg/mL).

[5] = target: T1, Na+/K+-ATPase (Homo sapiens, UniProt P05023); assay: Non-radioactive rubidium ion uptake assay, HEK-293 cells; format: cell-based; conditions: read-out: Na+/K+-ATPase Inhibition IC50
T1 construct: endogenous in cells; host or cells: HEK-293
Protocol: (§2) Na/K-ATPase Assays. Inhibition of Na^+/K^+-ATPase on HEK-293 cells and CHO-K1 cells by the library hits was determined by Aurora Biomed, Inc. using a high-throughput non-radioactive rubidium ion uptake assay. Experiments were conducted in duplicate using three different concentrations. Within each experiment, percent inhibition values at the three concentrations were expressed as the percent reduction of the maximum absorption signal observed for a 0 nM control. IC50 values were determined using the following formula: IC50=[(50−low %)/(high %−low %)]×(high conc.−low conc.)+low conc.
(§3) To assess how these structural modifications impact the ability of library members to inhibit Na^+/K^+-ATPases, a fundamental activity of cardiac glycosides (Paula, S., et al., (2005) Biochemistry 44, 498-510), library hits 5β, 15β, 23β, 27β, 33β, 40β, and digitoxin (1) were submitted to a non-radioactive rubidium uptake assay to gauge Na^+/K^+-ATPase inhibition in both […] human embryonic kidney cells and CHO-K1 hamster ovary cells (Gill, S. et al., (2004) ASSAY and Drug Development Technologies 2, 535-542).

[6] = target: Na+/K+-ATPase (Cricetulus griseus, UniProt A0A8C2N4Z0); assay: Non-radioactive rubidium ion uptake assay, CHO-K1 cells; format: cell-based, hamster; conditions: read-out: Na+/K+-ATPase Inhibition IC50
Protocol: as §2, §3

[7] = HCT-116 cells, read-out: IC50, HCT-116

Row | Structure (SMILES) | IC50 ([1]; Homo sapiens, HCT-116, HCT-116 cells, read-out: IC50, HCT-116) [nM] | IC50 ([2]; Homo sapiens, Hep3B) [nM] | IC50 ([3]; Homo sapiens, A549, A549 cells) [nM] | IC50 ([4]; Homo sapiens, read-out: average IC50) [nM] | IC50 [5] [nM] | IC50 [1, 7] [nM] | IC50 [2] [nM] | IC50 ([3]; A549 cells) [nM] | cytotoxicity (in words) ([4]; cell line panel, 72 h, calcein AM) | IC50 [6] [nM] | IC50 ([1]; HCT-116, 72 h, calcein AM, read-out: IC50) [nM] | IC50 ([4]; range over cell lines) [nM]
1 | C[C@H]1O[C@@H](O[C@H]2[C@@H](O)C[C@H](O[C@H]3[C@@H](O)C[C@H](O[C@H]4CC[C@@]5(C)[C@H](CC[C@@H]6[C@@H]5CC[C@]5(C)[C@@H](C7=CC(=O)OC7)CC[C@]65O)C4)O[C@@H]3C)O[C@@H]2C)C[C@H](O)[C@@H]1O [digitoxin] | 170 | 220 | 280 | ~440 | 75400 ± 500 | – | – | – | – | – | – | –
2 | CON([C@H]1CC[C@@]2(C)[C@H](CC[C@@H]3[C@@H]2CC[C@]2(C)[C@@H](C4=CC(=O)OC4)CC[C@]32O)C1)[C@H]1OC[C@H](O)[C@@H](O)[C@@H]1O [23β, L-xyloside] | – | – | – | – | > 300000 | 100 | 500 | 79 | significantly more potent than digitoxin against some cell lines | > 500000 | – | –
3 | CON([C@H]1CC[C@@]2(C)[C@H](CC[C@@H]3[C@@H]2CC[C@]2(C)[C@@H](C4=CC(=O)OC4)CC[C@]32O)C1)[C@H]1OC[C@H](O)[C@H](O)[C@@H]1O [5β, L-riboside] | – | – | – | – | > 300000 | 18 | 59 | 33 | – | 270000 | 18 ± 2 | 18 to 59
4 | CON([C@H]1CC[C@@]2(C)[C@H](CC[C@@H]3[C@@H]2CC[C@]2(C)[C@@H](C4=CC(=O)OC4)CC[C@]32O)C1)[C@@H]1O[C@H](CO)[C@@H](O)[C@H](O)[C@@H]1O [27β, D-mannoside] | – | – | – | – | > 200000 | 800 | 400 | 630 | – | > 300000 | – | –
